# Results as given in BindingDB's records for doi:10.7270/Q23F4N3R (Burnham Center For Chemical Genomics, 2011).
# Where a name gives a salt, the structure may show the parent alone.
# Test: hexokinase 1 inhibition, dose response, selectivity assay for HKDC1 inhibitor project, biochemical (AID 504763)
# Details: not given
row,SMILES,IC50
1,"O=C(O)c1cc(N2N=C(C(F)(F)F)/C(=C/C=C/c3ccco3)C2=O)ccc1Cl [2-chloro-5-[4-[3-(2-furyl)-2-propenylidene]-5-oxo-3-(trifluoromethyl)-4,5-dihydro-1H-pyrazol-1-yl]benzoic acid]",> 80 µM
2,"CCN(CC)C(=O)c1ccc(C(=O)c2c(C)cc(C)cc2C)cc1 [N,N-diethyl-4-[oxo-(2,4,6-trimethylphenyl)methyl]benzamide]",> 80 µM
3,CCc1nc2sc3c(O)ncnc3c2c2c1CSC(C)(C)C2 [MLS000776813],21.8 µM
4,COc1ccc(OC)c(N2C(=O)C(=Cc3ccco3)C(=O)NC2=S)c1 [MLS001197216],> 80 µM
5,O=C1C(Nc2ccccc2)=CC(=NS(=O)(=O)c2cccs2)c2ccccc21 [MLS000374486],6.56 µM
6,Cc1[nH]c2ccccc2c1C1=CC(=O)C=CC1=O,9.71 µM
7,COC(=O)c1cc(C)nc2c1C(=O)C(=O)C=C2N1CCOCC1 [MLS001208989],16.6 µM
8,CCCCC(CC)CNC(=N)NC(=N)NCCCCCCNC(=N)NC(=N)NCC(CC)CCCC (centres undefined) [MLS002153995],38.7 µM
9,Cc1cc(Oc2ccc(C(C)(C)C)cc2)nc(N2CCOCC2)n1 [4-[4-(4-tert-butylphenoxy)-6-methylpyrimidin-2-yl]morpholine],> 80 µM
10,COC1=CC(=O)C=C(OC)C1=O [MLS002207260],3.54 µM
11,CCc1ccc2c(c1)C(NC(C)=O)C(=O)N2CCN1CCOCC1 (centres undefined) [MLS001215951],> 80 µM
12,N#CC(C(=O)CCl)c1nc2c(s1)CCc1ccccc1-2 (centres undefined) [MLS001171530],38.3 µM
13,"CC(OC(=O)c1cc(O)c2ccccc2c1O)C(=O)Nc1ccc(C(N)=O)cc1 (centres undefined) [[1-[(4-aminocarbonylphenyl)amino]-1-oxidanylidene-propan-2-yl] 1,4-bis(oxidanyl)naphthalene-2-carboxylate]",> 80 µM
14,O=C(O)[C@@H](c1ccccc1)N1Cc2ccccc2C1=O,> 80 µM
15,"O=C1C=CC(=O)c2c(O)c(CO)c(CO)c(O)c21 [5,8-dihydroxy-6,7-bis(hydroxymethyl)naphthalene-1,4-dione]",> 80 µM
16,O=S(=O)(O)c1ccc(O)c2cc(Nc3ccccc3)ccc12,> 80 µM
17,"O=C(CSc1nnc(CCCN2C(=O)c3cccc4cccc(c34)C2=O)n1-c1ccccc1)N1CCN(CCO)CC1 [2-[3-[5-[[2-[4-(2-hydroxyethyl)-1-piperazinyl]-2-oxoethyl]thio]-4-phenyl-1,2,4-triazol-3-yl]propyl]benzo[de]isoquinoline-1,3-dione]",7.31 µM
18,O=C1C=C(Nc2ccccc2C(=O)O)c2ccccc2C1=O [SMR000123743],16.9 µM
19,Cc1nc([N+](=O)[O-])c(Br)n1Cc1ccc(Cl)c(Cl)c1 [MLS000730654],> 80 µM
20,"O=C(C=Cc1ccc(Br)cc1)NC(=S)Nc1ccc(S(=O)(=O)Nc2nccs2)cc1 [(E)-3-(4-bromophenyl)-N-[[4-(1,3-thiazol-2-ylsulfamoyl)phenyl]carbamothioyl]prop-2-enamide]",> 80 µM
21,"CC(C)c1ccc(S(=O)(=O)N=C2C=C(Sc3nnc[nH]3)C(=O)c3ccccc32)cc1 [4-isopropyl-N-[(1Z)-4-oxo-3-(1H-1,2,4-triazol-3-ylthio)naphthalen-1(4H)-ylidene]benzenesulfonamide]",5.87 µM
22,"O=C1C=C(c2c(O)ccc3ccccc23)c2ccccc2C1=O [4-(2-hydroxy-1-naphthalenyl)naphthalene-1,2-dione]",5.1 µM
23,"COc1ccc(-n2c(C)cc(C(=O)CCl)c2C)cc1 [2-chloranyl-1-[1-(4-methoxyphenyl)-2,5-dimethyl-pyrrol-3-yl]ethanone]",> 80 µM
24,"CN1c2ccc(C=O)c3c(C=O)ccc(c23)N(C)C1(C)C [1,2,2,3-tetramethyl-2,3-dihydro-1H-perimidine-6,7-dicarbaldehyde]",18.8 µM

row,SMILES,IC50
1,O=C(O)c1ccc(S(=O)(=O)N=C2C=C(Nc3ccccc3F)C(=O)c3ccccc32)cc1,6.02 µM
2,"O=C(NC1=CC(=O)c2ccccc2C1=O)c1ccccc1 [N-(1,4-dioxo-2-naphthalenyl)benzamide]",4.01 µM
3,CC(=O)NC1C(=O)N(CCN2CCOCC2)c2ccc(C)cc21 (centres undefined) [N-[5-methyl-1-(2-morpholin-4-ylethyl)-2-oxidanylidene-3H-indol-3-yl]ethanamide],> 80 µM
4,"CCOC(=O)c1c(-n2c(C)cc(C=C3C(=O)NC(=S)NC3=O)c2C)sc2c1CCCC2 [ethyl 2-{3-[(4,6-dioxo-2-thioxotetrahydro-5(2H)-pyrimidinylidene)methyl]-2,5-dimethyl-1H-pyrrol-1-yl}-4,5,6,7-tetrahydro-1-benzothiophene-3-carboxylate]",> 80 µM
5,COc1cc2c(cc1OC)-c1c(OC)c(OC)c(OC)c3ccnc(c13)C2=O [MLS000574936],10.1 µM
6,CCc1ccc(S(=O)(=O)N=C2C=C(Sc3nnc[nH]3)C(=O)c3ccccc32)cc1,2.85 µM
7,Cc1cc2cc(CCNC(=O)c3ccc(S(=O)(=O)N4CCOCC4)cc3)c(O)nc2cc1C [SMR000025588],11.5 µM
8,CCOc1ccc2c(c1)C(NC(C)=O)C(=O)N2CCN1CCOCC1 (centres undefined) [N-[5-ethoxy-1-(2-morpholin-4-ylethyl)-2-oxo-3H-indol-3-yl]acetamide;hydrochloride],> 80 µM
9,NC1=C(Br)C(=O)c2ncccc2C1=O,13.8 µM
10,"Cc1cc(C)n2cc(CSc3nnc(-c4ccccc4)c(-c4ccccc4)n3)nc2n1 [2-[(5,6-diphenyl-1,2,4-triazin-3-yl)sulfanylmethyl]-5,7-dimethyl-imidazo[1,2-a]pyrimidine]",11.4 µM
11,"COc1cc(NC(=O)c2cnc(N)s2)cc(C(=O)Nc2cccc(C(F)(F)F)c2)c1 [2-amino-N-[3-methoxy-5-[[3-(trifluoromethyl)phenyl]carbamoyl]phenyl]-1,3-thiazole-5-carboxamide]",> 80 µM
12,N#Cc1ccc(CSc2nnc(NC(=O)c3ccc4ncsc4c3)s2)cc1 [MLS000334839],> 80 µM
13,"Cc1ccc(C)c(-n2nnnc2Sc2nnnn2-c2ccccc2)c1 [1-(2,5-dimethylphenyl)-5-(1-phenyltetrazol-5-yl)sulfanyltetrazole]",> 80 µM
14,"CN(C)Cc1cc(O)c(CN(C)C)cc1O [2,5-bis[(dimethylamino)methyl]benzene-1,4-diol]",> 80 µM
15,Cc1nc2c(c(=O)c3ccccc3n2C)c(=O)n1-c1ccc(F)cc1 [SMR000439525],8.78 µM
16,COC1=CC(=O)C(OC)=C(OC)C1=O [SMR001527280],6.46 µM
17,"CC1=NOC(=O)/C1=C\c1ccc(-c2ccc(Cl)cc2Cl)o1 [4-{[5-(2,4-dichlorophenyl)-2-furyl]methylene}-3-methyl-5(4H)-isoxazolone]",> 80 µM
18,"O=c1c2ccccc2nc2n1CCC2 [2,3-dihydropyrrolo[2,1-b]quinazolin-9(1H)-one]",> 80 µM
19,COc1cc(/C=C2\SC(c3ccc(C)cc3)=NC2=O)ccc1O [MLS000579809],> 80 µM
20,Nc1c(Br)cc2c3c(cccc13)-c1ccccc1-2 [MLS002694423],9.59 µM
21,O=C(NCCc1ccccc1)C(c1cccs1)N(C(=O)CCl)c1ccc(Cl)cc1 (centres undefined) [2-(4-chloro-N-(2-chloro-1-oxoethyl)anilino)-N-(2-phenylethyl)-2-thiophen-2-ylacetamide],> 80 µM
22,C=CCN1C=C2C(=O)C(C)(OC(=O)CCC(=O)OC)C(=O)C(Br)=C2C=C1c1ccc(OC)cc1 (centres undefined),> 80 µM
23,"CCOc1ccc(-n2c(C)cc(C(=O)CCl)c2C)cc1 [2-chloranyl-1-[1-(4-ethoxyphenyl)-2,5-dimethyl-pyrrol-3-yl]ethanone]",> 80 µM

# Same assay, conditions: inactive by the depositor's call
row,SMILES,IC50
1,"O=S(=O)(Nc1cc(Sc2nc[nH]n2)c(O)c2ccccc12)c1ccccc1 [N-[4-oxidanyl-3-(1H-1,2,4-triazol-5-ylsulfanyl)naphthalen-1-yl]benzenesulfonamide]",57.8 µM
2,CN(C)c1ccc(Cc2cc3c(O)ccc(O)c3cc(Cc3ccc(N(C)C)cc3)c2=O)cc1 [SMR001565845],73.6 µM
3,"CCCCNC(=O)c1sc(=S)n2c1[nH]c(=O)c1ccc(C(=O)NCCc3ccc(OC)c(OC)c3)cc12 [3-N-butyl-8-N-[2-(3,4-dimethoxyphenyl)ethyl]-5-oxo-1-sulfanylidene-4H-[1,3]thiazolo[3,4-a]quinazoline-3,8-dicarboxamide]",21.2 µM
4,CC(C)Nc1nnc(SCC(=O)Nc2ccc3c(c2)C(=O)c2ccccc2C3=O)s1 [MLS000390413],22.3 µM
5,COC(=O)c1ccc(CCc2cc(O)c(Br)cc2O)cc1 [SMR001565911],23.2 µM
6,"Cc1nc(COC(=O)c2cc(O)c3ccccc3c2O)cs1 [(2-methyl-1,3-thiazol-4-yl)methyl 1,4-bis(oxidanyl)naphthalene-2-carboxylate]",25 µM
7,"COc1cc2c(cc1OC)-c1cc(NCc3ccccn3)nc(=O)n1CC2 [9,10-dimethoxy-2-(2-pyridinylmethylamino)-6,7-dihydropyrimido[6,1-a]isoquinolin-4-one]",67.4 µM
8,O=C1C(Cl)=C(N2CCCCC2)C(=O)C(Cl)=C1c1cnc(N2CCCCC2)s1 [MLS000550549],71.6 µM
9,CCCc1nc2oc3c(NCC4CCCO4)ncnc3c2c2c1COC(C)(C)C2 (centres undefined) [MLS000042555],31.6 µM
10,COC(=O)c1ccc(NC(=O)CSc2n[nH]c(-c3ccncc3)n2)cc1,22.5 µM
11,"COc1ccc(NC(=O)CSc2ccc(-c3cccnc3)nn2)c(OC)c1 [N-(2,4-dimethoxyphenyl)-2-[[6-(3-pyridinyl)-3-pyridazinyl]thio]acetamide]",21.5 µM
12,Nc1ccc(S(=O)(=O)c2cc(O)c3ccccc3c2O)cc1 [SMR001570953],59.9 µM
13,"N#Cc1c(SCC(=O)Nc2nc3ccc(Br)cc3s2)sc2c(O)cc(=O)[nH]c12 [N-(6-bromo-1,3-benzothiazol-2-yl)-2-[(3-cyano-5-hydroxy-7-oxo-4H-thieno[3,2-b]pyridin-2-yl)thio]acetamide]",25.9 µM
14,O=S(=O)(Nc1ccc(O)c2ccccc12)c1cccs1 [N-(4-oxidanylnaphthalen-1-yl)thiophene-2-sulfonamide],55.3 µM
15,"Cc1oc2c(c1C(=O)c1ccc(Cl)cc1)C(=O)C(=O)c1ccccc1-2 [3-(4-Chloro-benzoyl)-2-methyl-naphtho[1,2-b]furan-4,5-dione]",40 µM
16,"CCN(CC)Cc1cc(O)c(CN(CC)CC)cc1O [2,5-bis(diethylaminomethyl)benzene-1,4-diol]",55.3 µM
17,"CCN(CC)c1ccc2c(c1)oc(=O)c1c(Cl)cc(=O)oc12 [4-chloranyl-8-(diethylamino)pyrano[3,2-c]chromene-2,5-dione]",55.4 µM
